From patent US11306100B2, “Spirooxindole compounds as GSK3B inhibitors and process for preparation thereof” (COUNCIL OF SCIENTIFIC & INDUSTRIAL RESEARCH, priority 2017, dated 2022)

Assays:
[1] = test system: cellular GSK3β signalling in PANC-1 cells; experiment: Western blot of GSK3β signalling and NFkB target proteins in PANC-1 cells; type: cell-based
Procedure: The compounds inhibiting GSK3β activity in-vitro added to PANC-1 cells to determine their potential against intracellular GSK3β signalling pathways in cancer cells. Briefly, PANC-1 cells were plated in 60 mm plates (100,000 cells/4 mL) and cultured in the standard DMEM medium containing 10% serum. After culturing for 18 hrs, different concentrations of test compounds or standard controls prepared in DMSO were added to culture media to achieve final concentration 0 to 100 μM of compound to cells. Cells were further continued to grow for 48 h with constant supply of 5% CO2 in humid incubator. The time course (0 to 48 h) experiment was carried out simultaneously with fixed concentration of compound showing 50% growth inhibition. At the end of the experiments, all cells were scraped directly in cold PBS and washed for 3 times before lysis directly in 2D lysis buffer (8M urea, 2M thiourea, 4% CHAPS, 4 mM tris base and 65 mM DTT) for isolation of proteins to perform western blots. The protein concentration was determined by modified Bradford assay.
To perform western blot, protein extracts were separated on 12% SDS-PAGE and electrophoretically (1 mA/cm^2 membrane for 1 hr) transferred onto the nitrocellulose membrane by semi-dry method. After protein transfer, membrane was stained with Ponceau S solution (0.2% Ponceau S in 3% Trichloroacetic acid) for 2 min to see efficiency of electrophoretic transfer. The membrane was destained in ddH2O to visualize the protein bands and further destained with TBST (20 mM Tris, 138 mM NaCl, pH 7.6 and 0.1% Tween 20) for blotting. To avoid non-specific detection of target proteins, blotted membranes were blocked with BSA (3% BSA in TBST solution). All antibodies against specific protein targets of interest were purchased from Cell Signaling Technology, USA if not mentioned specifically. Then the blots were incubated with antibodies prepared in blocking buffer (1:1000 Antibody to blocking buffer dilution) for 18 h with constant shaking at 4° C. Three washing steps in PBS each for 5 mins removed the excess and non-specific antibodies. For visualization, blots were incubated with secondary antibody conjugated to either horseradish peroxidase or alkaline phosphatase [anti-(mouse IgG) or anti-(rabbit IgG), diluted 1:5000 in TBST] for 1 h at room temperature. After three washes in PBS, the reaction was developed either by addition of LumiGLO substrate (Cell Signaling Technology) followed by capturing on X-ray film or addition of chromogenic NBT (nitro-blue tetrazolium chloride) and BCIP (5-bromo-4-chloro-3′-indolyphosphate p-toluidine salt) substrate for alkaline phosphatase developing purple colored bands. The blots were scanned for densitometry performed using Image-J program.

PANC-1 cells [2] = experiment: Cell viability, Sulforhodamine B assay; type: cell-based
Procedure: Cell viability was measured using Sulforhodamine B assay. The cytotoxic effect of the compounds with GSK3β inhibitory potential was tested against PANC-1 cells. Initially, the PANC-1 cells were seeded in flat bottom 96-well plate (5000 cells/100 μL) in complete medium and cultured for 18 hrs under standard conditions. After 18 h the cells were treated with either the different concentration of compounds, standard drugs or DMSO as solvent control. The final DMSO concentration to cells was maintained <2% in all cytotoxic assays. Each compound was tested in triplicate and the cytotoxicity was determined as the average of that triplicate. Further, the plates were incubated for another 48 h in an incubator maintained at 37° C. with a constant supply of 5% CO2. The cells were fixed using 10% TCA and incubated for 1 h at 4° C. Then the plates were rinsed carefully with MQ water and air dried at room temperature. To all the wells of MTP plate 0.057% SRB solution was added and kept for approximately 30 min before it was rinsed off using 1% acetic acid. The plates were then air dried and 100 μL of 10 mM tris base was added to each well to solubilize the SRB before absorbance was measured at 510 nm. The measure of absorbance is directly proportional to cell growth and is thus used to calculate % reduction in the rate of cell proliferation according to control DMSO treated cells. All experiments were performed in triplicates; mean % age proliferation values with ±SD were plotted here.

recombinant GSK3β = recombinant GSK3β (Homo sapiens, UniProt P49841); experiment: ADP-Glo kinase assay of GSK3β activity; type: biochemical; conditions: for IC50: GSK3β kinase activity
Sequence of recombinant GSK3β (P49841 whole entry): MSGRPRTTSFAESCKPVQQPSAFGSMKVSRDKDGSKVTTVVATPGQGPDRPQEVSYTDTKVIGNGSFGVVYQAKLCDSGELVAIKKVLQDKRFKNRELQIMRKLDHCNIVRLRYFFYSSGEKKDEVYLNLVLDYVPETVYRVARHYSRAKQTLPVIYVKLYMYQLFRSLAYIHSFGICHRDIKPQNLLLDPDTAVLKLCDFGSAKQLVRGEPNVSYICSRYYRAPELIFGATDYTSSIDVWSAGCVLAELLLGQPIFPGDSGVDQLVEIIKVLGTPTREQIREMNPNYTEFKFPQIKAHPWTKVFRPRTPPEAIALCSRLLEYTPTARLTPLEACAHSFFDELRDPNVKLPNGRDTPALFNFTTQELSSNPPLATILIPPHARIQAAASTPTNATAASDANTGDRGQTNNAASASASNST
Procedure: Activity of recombinant GSK3β is measured using ADP-Glo Kinase assay according to supplier's standard protocol with minor modifications in 384 well format. Briefly, kinase reaction mixture was prepared by adding […] of recombinant enzyme, 2 μM ATP, 1 μg of enzyme substrate along with test compound or DMSO to a final volume of 5 μl. The kinase reaction was performed by incubating the mixture at room temperature for 17 mins. To correct reaction back ground a substrate blank reaction was also performed. ADP glow reagent (equal volume to reaction mixture) was added to the reaction mixture to deplete any unused ATP added to the kinase reaction and incubated at further 40 min at 27° C. Then 10 μl of kinase detection reagent was added followed by incubation for 30 min at 27° C. to convert ADP to ATP and introduce luciferase to measure kinase activity. The luminescence was measured using luminometer (Perkin Elmer) which is directly proportional to ADP generated in kinase reaction. To determine the amount of ADP produced in kinase reaction and calculate specific activity of the enzyme, a conversion curve is prepared by serial dilution of ADP and ATP mixture. Specific activity of the GSK3β was calculated using the following equation. (ADP(kinase reaction)−ADP(substrate blank)) in mmol)/(Reaction time in min)×(GSK3β in mg).

PANC-1 cells [3] = experiment: Colony formation (soft agar, clonogenic) assay; type: cell-based; conditions: TRAIL alone, 10 ηg/mL
Procedure: To determine the efficiency of GSK3β inhibitors in combination with the TRIAL on anchorage independent growth of PANC-1 cells soft agar assay were performed. The base agar (0.5%) was prepared by mixing equal amounts of 1% agar with 2× media (20% FBS and 2× antibiotics) filled in 6-well plate. Simultaneously, PANC-1 cells (14000/well) mixed with 2× media containing different concentrations of identified compounds alone or in combination with TRAIL mixed with 0.7% of sterile agar to achieve final concentration of […] top agar. The cell suspension was spread on solidified base agar. Then the plates were incubated in CO2 incubator for 14 days and the cells were fed with fresh media containing respective concentration and combination of TRIAL every 3 days. Upon termination (after 14 days of incubation) plates were stained with 0.005% of crystal violet for 1 h and excess stain was removed by washing with MQ. The number of blue colonies were counted using olympus Xi71 microscope.

Row | Molecule | melting point | IC50 (recombinant GSK3β; 2 μM ATP) | also measured
1 | O=C1Nc2ccccc2C12COC(CI)C2 (stereo not shown) [6a, 5-(Iodomethyl)-4,5-dihydro-2H-spiro[furan-3,3′-indolin]-2′-one] | 170.6 °C |  | 
2 | O=C1Nc2ccccc2C12COC(Cn1cc(-c3ccccc3)nn1)C2 (stereo not shown) [AB-C, 5-((4-Phenyl-1H-1,2,3-triazol-1-yl)methyl)-4,5-dihydro-2H-spiro[furan-3,3′-indolin]-2′-one] | 175 to 177 °C | 3.59 ± 0.98 µM | phosphorylation of GSK3β ([1]; PANC-1 cells treated with compound): significantly decreased; β-catenin level ([1]; PANC-1 cells versus control (DMSO)): accumulation of β-catenin; effectiveness against cell growth (PANC-1 cells [2]; FIG. 3B, low concentration of TRAIL (1 ηg/mL)): not effective compared to remaining compounds; effectiveness against cell growth / sensitisation to TRAIL (PANC-1 cells [2]; in combination with TRAIL (10 ηg/mL), FIG. 3A): less effective compared to other molecules; inhibition of GSK3β in in-vitro kinase assays (recombinant GSK3β): potent inhibition
3 | CC(C)(O)c1cn(CC2CC3(CO2)C(=O)Nc2ccccc23)nn1 (stereo not shown) [AB-E, 5-((4-(2-Hydroxypropan-2-yl)-1H-1,2,3-triazol-1-yl)methyl)-4,5-dihydro-2H-spiro[furan-3,3′-indolin]-2′-one] |  | 5.44 ± 1.49 µM | 
4 | CCOC(=O)c1cn(CC2CC3(CO2)C(=O)Nc2ccccc23)nn1 (stereo not shown) [AB-F, Ethyl-1-((2′-oxo-4,5-dihydro-2H-spiro[furan-3,3′-indoline]-5-yl)methyl)-1H-1,2,3-triazole-4-carboxylate] | 133 to 134 °C | 4.68 ± 0.6 µM | 
5 | O=C1Nc2ccccc2C12COC(CN1CCOCC1)C2 (stereo not shown) [AB-K, 5-(Morpholinomethyl)-4,5-dihydro-2H-spiro [furan-3, 3′-indolin]-2′-one] | 126 to 128 °C | 4.91 ± 0.56 µM | 
6 | O=C1Nc2ccccc2C12COC(CN1CCSCC1)C2 (stereo not shown) [AB-L, 5-(Thiomorpholinomethyl)-4,5-dihydro-2H-spiro[furan-3,3′-indolin]-2′-one] |  | 4.06 ± 1.67 µM | 
7 | COC(=O)c1ccc(-c2cc(Cl)ccc2OCc2cn(CC3CC4(CO3)C(=O)Nc3ccccc34)nn2)nc1C (stereo not shown) [AB-N, Methyl-6-(5-chloro-2-((1-((2′-oxo-4,5-dihydro-2H-spiro[furan-3,3′-indoline]-5-yl)methyl)-1H-1,2,3-triazol-4-yl)methoxy)phenyl)-2-methylnicotinate] | 120 to 122 °C |  | 
8 | O=Cc1ccccc1OCc1cn(CC2CC3(CO2)C(=O)Nc2ccccc23)nn1 (stereo not shown) [AB-P, 2-((1-((2′-Oxo-4,5-dihydro-2H-spiro[furan-3,3′-indoline]-5-yl)methyl)-1H-1,2,3-triazol-4-yl)methoxy)benzaldehyde] |  | 4.93 ± 0.53 µM | 
9 | O=C1Nc2ccccc2C12COC(CN1CCN(Cc3ccccc3)CC1)C2 (stereo not shown) [AB-R, 5-((4-Benzylpiperazin-1-yl)methyl)-4,5-dihydro-2H-spiro[furan-3,3′-indolin]-2′-one] | 141 to 143 °C |  | 
10 | [Cl-].[Li+] [Licl, LiCl, reference compound] |  |  | IC50 (recombinant GSK3β): 3990 µM
11 | Cc1ccc([N+](=O)[O-])cc1S(=O)(=O)N(C)/N=C/c1cnc2ccc(Br)cn12 [PIK-75, reference compound] |  |  | IC50 (recombinant GSK3β): 0.0176 µM
12 | TRAIL: Tumor necrosis factor-related apoptosis-inducing ligand (TRAIL) (protein, UniProt P50591 1-281, looked up) Tumor necrosis factor ligand …: MAMMEVQGGPSLGQTCVLIVIFTVLLQSLCVAVTYVYFTNELKQMQDKYSKSGIACFLKEDDSYWDPNDEESMNSPCWQVKWQLRQLVRKMILRTSEETISTVQEKQQNISPLVRERGPQRVAAHITGTRGRSNTLSSPNSKNEKALGRKINSWESSRSGHSFLSNLHLRNGELVIHEKGFYYIYSQTYFRFQEEIKENTKNDKQMVQYIYKYTSYPDPILLMKSARNSCWSKDAEYGLYSIYQGGIFELKENDRIFVSVTNEHLIDMDHEASFFGAFLVG |  |  | inhibition of colony formation (PANC-1 cells [3]): did not show effective inhibition on colony formation; cell death in PANC-1 cells (PANC-1 cells [2]; TRAIL alone (10 ηg/ml)): did not cause any significant cell death

The next lines start with results.

Row | melting point | IC50 (recombinant GSK3β; 2 μM ATP) | Molecule | also measured
13 | 132 to 135 °C |  | CCOC(=O)c1ccc(-c2cc(Cl)cc(Cl)c2OCc2cn(CC3CC4(CO3)C(=O)Nc3ccccc34)nn2)nc1C (stereo not shown) [AB-W, Ethyl6-(3,5-dichloro-2-((1-((2′-oxo-4,5-dihydro-2H-spiro[furan-3,3′-indoline]-5-yl)methyl)-1H-1,2,3-triazol-4-yl)methoxy)phenyl)-2-methylnicotinate] | 
14 | 130 to 132 °C |  | O=C1Nc2ccccc2C12COC(CN1CCN(c3ccccc3)CC1)C2 (stereo not shown) [AB-X, 5-((4-Phenylpiperazin-1-yl)methyl)-4,5-dihydro-2H-spiro[furan-3,3′-indolin]-2′-one] | 
15 |  | 6.53 ± 0.52 µM | CC(=O)Nc1ccccc1 [Acetanilide, reference compound] | 
16 |  | 6.46 ± 0.63 µM | O=C1Cc2ccccc2N1 [Oxindole] | 
